Reference: a melting point compilation (Tetko et al.; mined from patent text by program, amines drawn as free bases though some values may be those of a salt)

First: C[C@@H]1N=C(c2ccccc2)c2cc([N+](=O)[O-])ccc2N(C)C1=O
Second: O=C(O)c1c(-c2ccccc2)oc2ccccc2c1=O
The melting point of the first is lower: 84 to 85 °C for the first, 298 to 300 °C for the second.

First: Cn1c2c(c3ccccc31)SCCC2(C)C=O (configuration not stated)
Second: CC1CCc2nc3c(N)nc4ccccc4c3n2N1 (configuration not stated)
The melting point of the first is lower: 119 to 123 °C for the first, 241 to 243 °C for the second.

First: Cc1cc(C)nc(CCOc2ccc(NC(=O)N(C)C)cc2)c1
Second: CCN(c1ccc(Cl)cc1)c1cc(NC)nc(C)n1
The melting point of the first is lower: 113 to 114 °C for the first, 133 to 136 °C for the second.

First: C#CCN1C(=O)CCC1C(N)=O (configuration not stated)
Second: CN(C)C(=O)C#C[C@H]1CC[C@H](N(C)C(=O)OC(C)(C)C)CC1
The melting point of the first is higher: 145 to 147 °C for the first, 115 to 117 °C for the second.

Compared with O=C1OC(=O)c2c(Sc3ccccc3)c(Sc3ccccc3)c(Sc3ccccc3)c(Sc3ccccc3)c21, O=c1[nH]c(=O)n(C2CC(F)C(COC(c3ccccc3)(c3ccccc3)c3ccccc3)O2)cc1C#CI (configuration not stated) is lower in melting point: 141 to 142 °C for the first, 73 °C for the second.

First: O=C(O)c1ccccc1NCc1ccncc1
Second: O=C1N(Cc2ccncc2)Cc2cccnc2N1c1cccc(Cl)c1
The melting point of the first is higher: 208 °C for the first, 132 to 134 °C for the second.

Going from CCOc1ccc2[nH]cc(/C(C#N)=C/c3cccnc3)c2c1 to COC1=N/C(=C\c2c[nH]c3ncc(Cl)cc23)C(=O)N1c1ccccc1, the melting point rises from 196 °C to 228 °C.

First: O=C(Nc1c(C(O)(C(F)(F)F)C(F)(F)F)ccc2ccccc12)c1cccs1
Second: FC(F)(F)c1cccc(N2CCC(N=Cc3cccc4ccccc34)=N2)c1
The melting point of the first is higher: 191 to 192 °C for the first, 173 °C for the second.

First: Cc1c(NC(=O)CC(C)(C)C)cc2c(c1C)OC(C)(C)C2(O)c1ccc(Br)cc1 (configuration not stated)
Second: Cc1ccc(C2c3c(C)c(N)c(C)c(C)c3OC2(C)C)cc1 (configuration not stated)
The melting point of the first is higher: 118 to 119 °C for the first, 91 to 92 °C for the second.

First: CC(=O)SC(CC(=O)N[C@@H](Cc1ccccc1)C(=O)O)C(=O)c1ccccc1 (some centres not stated)
Second: O=C(N[C@@H](Cc1c[nH]c2ccccc12)C(=O)O)c1ccccc1
The melting point of the first is higher: 110 to 112 °C for the first, 84 to 86 °C for the second.

First: O=C1C(=O)c2ccccc2C2=C1SCC1(CCN(C(=O)C=Cc3ccccc3Cl)CC1)O2
Second: CCN/C(=C1/Sc2ccccc2C1=O)c1ccccc1CC
The melting point of the first is higher: 110 to 115 °C for the first, 76 to 77 °C for the second.

First: Cc1cc(C)c2nc(C3CC3)n(Cc3ccc(C4(C(=O)O)CCCCC4)s3)c2n1
Second: Cc1cc2c(-c3ccccc3)nc(N3CCN(CC(=O)c4ccc(F)cc4)CC3)nc2s1
The melting point of the first is higher: 175 to 176 °C for the first, 141 to 142 °C for the second.

First: CCCCCCCCCCCCCc1c[nH]c(C(=O)O)c1
Second: CCCCc1ncc(CC(Cc2ccccc2)C(=O)O)n1Cc1ccccc1 (configuration not stated)
The melting point of the first is higher: 150 to 151 °C for the first, 148 to 150 °C for the second.

First: O=c1[nH]c2cc(Cl)ccc2c(=O)c2c(C(F)(F)F)n[nH]c12
Second: Cc1ccc(Cl)c2[nH]c(=O)oc(=O)c12
The melting point of the first is higher: 334 to 336 °C for the first, 248 to 250 °C for the second.

First: CC1(C)SC(=N)NC1=O
Second: CCCN=C(NC#N)NCCSCc1[nH]cnc1C
The melting point of the first is higher: 252 to 254 °C for the first, 108 to 110 °C for the second.

First: O=C1Cc2cccc(Oc3ccc4ccccc4c3)c2N1
Second: CNc1nc(N)nc(-c2ccc(-c3ccccc3)cc2)n1
The melting point of the first is lower: 195 to 197 °C for the first, 237 to 238 °C for the second.

First: Cc1nc2cccc(Cl)c2n1-c1ccccc1
Second: Cc1nc2c(N)nc3ccccc3c2n1CCCNC(=O)c1ccccc1
The melting point of the first is lower: 103 to 105 °C for the first, 230 to 231 °C for the second.

First: CCCc1nnc(/C=C/c2cc(OCc3ccc(OCc4nc(-c5ccco5)oc4C)c(OC)c3)nn2-c2ccccc2)o1
Second: CCCCc1ccc(CNC(=O)OC(C)(C)C)c(=O)n1Cc1ccc(-c2ccccc2-c2nnn[nH]2)cc1
The melting point of the first is higher: 107 to 108 °C for the first, 105 °C for the second.

Compared with CCOC(=O)c1ncn2c1CN(C)C(=O)c1c-2cccc1[N+](=O)[O-], CCOC(=O)c1ccc(-c2[nH]nc3c2C(=O)c2c(NC(=O)N(NC)NC)cccc2-3)s1 is higher in melting point: 212 to 213 °C for the first, 252 °C for the second.

Compared with OCc1cc2c3n(ccc-2n1)CC(Br)=N3, CCN1c2ncc(CCc3cncnc3)cc2C(=O)N(C)c2cccnc21 is higher in melting point: 113 to 115 °C for the first, 142 to 143 °C for the second.

First: CNc1ncnc2c1ncn2C1CC(F)C(CO)O1 (configuration not stated)
Second: COc1cc2c(Nc3ccc(Cl)cc3F)ncnc2cc1OCCCC(=O)N1CCCC1
The melting point of the first is lower: 100 to 103 °C for the first, 254 to 256 °C for the second.

First: Cc1cc(O)ccc1-c1ccc(C=NO)c(Cl)c1
Second: CC(=O)c1noc2cc(O)ccc12
The melting point of the first is higher: 169 to 171 °C for the first, 159 to 161 °C for the second.

First: COc1ccnc(-c2sccc2S(C)=O)c1 (configuration not stated)
Second: COc1ccc2c(c1)CC(=O)N2N
The melting point of the first is lower: 103 to 105 °C for the first, 136 to 138 °C for the second.

Compared with CN1CCN(N=C2CC(c3ccc(C(F)(F)F)cc3)Cc3c2c(=O)c2cc(Cl)ccc2n3O)CC1 (configuration not stated), COc1ccc(C(F)(F)F)cc1NC(=O)Nc1ccc(-c2c(C(N)=O)[nH]c3ccccc23)cc1 is lower in melting point: 213 °C for the first, 178 to 180 °C for the second.

First: CCc1cccc2nc(N[C@@H](CC(C)C)C(=O)OC)oc(=O)c12
Second: NNC(=O)Nc1nc2ccccc2[nH]1
The melting point of the first is lower: 74 to 76 °C for the first, 320 to 322 °C for the second.

Compared with OC1CCNc2ncc(Br)cc21 (configuration not stated), CC1CC2(CN(O)C2=O)c2cc(F)ccc2O1 (configuration not stated) is lower in melting point: 125 to 128 °C for the first, 118 to 120 °C for the second.

Compared with CC1(C)CCC(C)(C)c2cc(N(CCCCOCc3ccccc3)C(=O)Nc3ccc(C(=O)O)cc3)ccc21, CCc1cc2c(cc1O)CCC1C2CCC2(C)C(CCO[Si](c3ccccc3)(c3ccccc3)C(C)(C)C)CCC12 (configuration not stated) is lower in melting point: 158 to 162 °C for the first, 134 to 135 °C for the second.

Compared with CCCCn1c(=O)c2cc(C(=O)OCC)cn2c2cc(Cl)c(Cl)cc21, CCOC(=O)c1nn(-c2c(Cl)cc(C(F)(F)F)cc2Cl)cc1OC(F)(F)C(F)Cl (racemic) is lower in melting point: 179 to 180 °C for the first, 105 to 106 °C for the second.

First: CC(=O)c1cccc(-c2cnn3c(-c4cccc(NC(=O)CC(C)C)c4)ccnc23)c1
Second: NC(=O)c1cccc(-c2cccc3cc(Cc4cccc(C(F)(F)F)c4)sc23)c1
The melting point of the first is higher: 190 to 192 °C for the first, 153 to 154 °C for the second.

First: CC(O)C1(c2cccc(Cl)c2)CCN(C)CC1 (configuration not stated)
Second: NS(=O)(=O)c1cc(CO)cc(N2CCCC2)c1Oc1ccccc1
The melting point of the first is lower: 125 to 126 °C for the first, 155 °C for the second.

Compared with CCOc1nn(C(=O)NS(=O)(=O)c2c(C(=O)N(C)C)csc2C)c(=O)n1C, CCCC(=O)OCC(=O)C1C(C)CC2C3=C(C(O)CC21C)C1(C)C=CC(=O)C=C1C(F)C3 (configuration not stated) is lower in melting point: 162 °C for the first, 112 °C for the second.

First: COC(=O)c1cc2cccnc2cc1C(=O)OC
Second: CCSC(C)(C)C(=O)CC(=O)Nc1cc(NC(=O)CCCOc2ccc(C(C)(C)CC)cc2C(C)(C)CC)ccc1OC
The melting point of the first is higher: 101 to 102 °C for the first, 57 to 60 °C for the second.

Compared with CCOCc1nc2c(N)nc3cc(-c4cncc(CO)c4)ccc3c2n1CC(C)(C)O, Cc1nc2c(N)nc3c(c2n1CCCCCS(C)(=O)=O)CCCC3 is lower in melting point: 188 to 190 °C for the first, 172 to 174 °C for the second.

First: Nc1ccc2[nH]c(=O)cc(CCN3CCC(c4c[nH]c5ccccc45)CC3)c2c1
Second: O=S1(=O)c2cccc3cccc(c23)N1CCCCN1CC=C(c2c[nH]c3ccccc23)CC1
The melting point of the first is higher: 214 to 216 °C for the first, 203 °C for the second.

First: O=C(NC1CCCCC1)N(Cc1ccc(Cl)cc1)C1CCCC1
Second: c1ccc(N=C(NC(=Nc2ccccc2)N2CCCCO2)c2ccccc2)cc1
The melting point of the first is lower: 99 to 101 °C for the first, 187 to 190 °C for the second.

First: CC(C)(CO)c1ccc(C(O)CCCN2CCC(=C3c4ccccc4CCc4ccccc43)CC2)cc1 (configuration not stated)
Second: O=c1[nH]c(=O)n(C2CC(O)C(COC3(c4ccccc4)c4ccccc4Oc4ccccc43)O2)cc1I (configuration not stated)
The melting point of the first is lower: 157 to 159 °C for the first, 200 to 202 °C for the second.
